In article PMC8910387, “Systematic Comparison of Beetle Luciferase-Luciferin Pairs as Sources of Near-Infrared Light for In Vitro and In Vivo Applications” (International Journal of Molecular Sciences, 2022):

Assays:
Assay in all cases: bioluminescence peak-height (V0) kinetics
Luc2 [1] = biological target: T1, Luc2 (Photinus pyralis, UniProt P08659, F243M/S347G, form not given); assay type: biochemical; settings: Mg-ATP, O2; assay details in supplement; Mut51, His-tagged; read-out: Km (μM) ^4
T1 construct: mammalian codon optimized P. pyralis Luc; pGEX-6P-2, E. coli BL21(DE3)pLysS, GST removed, N-terminal GlyProLeuGlySer kept; Mut51 from pET28a (His-tag)
T1 sequence (P08659 whole entry F243M/S347G, form open): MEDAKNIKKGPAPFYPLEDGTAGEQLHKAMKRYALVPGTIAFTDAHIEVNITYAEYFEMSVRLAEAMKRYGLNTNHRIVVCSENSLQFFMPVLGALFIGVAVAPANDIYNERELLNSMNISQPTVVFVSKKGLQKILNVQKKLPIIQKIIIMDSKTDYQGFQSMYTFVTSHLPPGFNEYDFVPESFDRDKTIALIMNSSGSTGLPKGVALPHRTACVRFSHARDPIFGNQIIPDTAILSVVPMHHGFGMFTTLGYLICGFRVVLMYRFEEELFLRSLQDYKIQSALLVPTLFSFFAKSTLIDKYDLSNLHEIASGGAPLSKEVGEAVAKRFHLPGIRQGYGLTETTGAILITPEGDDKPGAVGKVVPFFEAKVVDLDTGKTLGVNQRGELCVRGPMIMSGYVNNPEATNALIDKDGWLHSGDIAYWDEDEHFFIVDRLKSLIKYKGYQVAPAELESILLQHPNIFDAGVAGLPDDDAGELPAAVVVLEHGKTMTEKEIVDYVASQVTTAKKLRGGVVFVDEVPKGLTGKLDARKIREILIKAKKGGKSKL
Description: (§1) bioluminescence peak-height (V0) kinetics on Luc2

Luc2 [2] = biological target: T2, Luc2 (Photinus pyralis, UniProt P08659); assay type: biochemical; settings: Mg-ATP, O2; assay details in supplement; read-out: Km (μM) ^4
T2 construct: mammalian codon optimized P. pyralis Luc; pGEX-6P-2, E. coli BL21(DE3)pLysS, GST removed, N-terminal GlyProLeuGlySer kept; Mut51 from pET28a (His-tag)
T2 sequence (P08659 whole entry): as the sequence (P08659 whole entry F243M/S347G, form open) above, with M243F, G347S counted along it
Description: as §1

[3] = test system: T3, CBR (tested as CBR2, CBR2opt); assay type: biochemical; settings: Mg-ATP, O2; assay details in supplement; read-out: Km (μM) ^4
T3 construct: mouse codon optimized; pGEX-6P-2, E. coli BL21(DE3)pLysS, GST removed, N-terminal GlyProLeuGlySer kept
Description: bioluminescence peak-height (V0) kinetics on CBR (tested as CBR2, CBR2opt)

PLR3 = test system: T4, PLR3; assay type: biochemical, Photinus pyralis / Luciola italica; settings: Mg-ATP, O2; assay details in supplement; read-out: Km (μM) ^4
T4 construct: G246A/F250H in mammalian codon optimized PLR1; pGEX-6P-2, N-terminal GlyProLeuGlySer kept
Description: bioluminescence peak-height (V0) kinetics on PLR3

Fluc_red = biological target: T5, Fluc_red (Photinus pyralis, UniProt P08659, S284T/E354R/D357Y, form not given); assay type: biochemical; settings: Mg-ATP, O2; assay details in supplement; read-out: Km (μM) ^4
T5 construct: pET16b, His-tag
T5 sequence (P08659 whole entry S284T/E354R/D357Y, form open): as the sequence (P08659 whole entry F243M/S347G, form open) above, with M243F, S284T, G347S, E354R, D357Y counted along it
Description: bioluminescence peak-height (V0) kinetics on Fluc_red

| Km (Luc2 [2]) [µM] | Km [3] [µM] | Compound | further results |
| --- | --- | --- | --- |
| 44 ± 11 | – | O=C(O)[C@H]1CSC(c2nc3c(Br)cc(O)cc3s2)=N1 [4′-BrLuc, (S)-2-(4-bromo-6-hydroxybenzo[d]thiazol-2-yl)-4,5-dihydrothiazole-4-carboxylic acid] | Km (Luc2 [1]): 2.3 ± 0.2 µM |
| 0.61 ± 0.2 | – | O=C(O)[C@H]1CSC(c2nc3cc4c(cc3s2)NCC4)=N1 [CycLuc1, (S)-2-(6,7-dihydro-5H-thiazolo[4,5-f]indol-2-yl)-4,5-dihydrothiazole-4-carboxylic acid] | – |
| – | 9.5 ± 1.3 | Nc1ccc2nc(C3=N[C@@H](C(=O)O)CS3)sc2c1 [NH2-LH2, (S)-2-(6-aminobenzo[d]thiazol-2-yl)-4,5-dihydrothiazole-4-carboxylic acid] | – |
| 3.3 ± 0.6 | 0.8 ± 0.1 | Nc1ccc2c(ccc3nc(C4=N[C@@H](C(=O)O)CS4)sc32)c1 [NH2-NpLH2] | – |
| 1.5 ± 0.2 | – | Nc1cnc2c(ccc3nc(C4=N[C@@H](C(=O)O)CS4)sc32)c1 [NH2-QLH2] | – |
| – | 0.93 ± 0.13 | O=C(O)[C@H]1CSC(c2nc3ccc4cc(O)ccc4c3s2)=N1 [OH-NpLH2] | – |
| 1.8 ± 0.6 | – | O=C(O)[C@H]1CSC(c2nc3ccc4cc(O)cnc4c3s2)=N1 [OH-QLH2] | Km (PLR3): 1.6 ± 0.1 µM |
| 0.13 ± 0.05 | 0.9 ± 0.08 | O=C(O)[C@H]1CSC(/C=C/c2nc3ccc(O)cc3s2)=N1 [iLH2, (S,E)-2-(2-(6-hydroxybenzo[d]thiazol-2-yl)vinyl)-4,5-dihydrothiazole-4-carboxylic acid] | Km (Fluc_red): 0.17 ± 0.05 µM |

| Compound | Km (Luc2 [2]) [µM] | Km [3] [µM] | further results |
| --- | --- | --- | --- |
| O=C(O)[C@H]1CSC(c2nc3ccc(O)cc3s2)=N1 [LH2, (S)-2-(6-hydroxybenzo[d]thiazol-2-yl)-4,5-dihydrothiazole-4-carboxylic acid] | – | 250 ± 24 | – |
